Experiment: xn = mol fraction of the nth substance listed
Conditions: Gas, Hot wire method

C [methane] + O=C=O
Conditions	thermal conductivity [W/m/K]
375 K, 919 kPa, x1 = 0.2493	0.02872
375 K, 919 kPa, x1 = 0.4994	0.03475
375 K, 930 kPa, x1 = 0.7496	0.04098
375 K, 1460 kPa, x1 = 0.2493	0.02883
375 K, 1528 kPa, x1 = 0.7496	0.04104
375 K, 1578 kPa, x1 = 0.4994	0.0348
375 K, 1986 kPa, x1 = 0.2493	0.02895
375 K, 2135 kPa, x1 = 0.7496	0.04117
375 K, 2220 kPa, x1 = 0.4994	0.03492
375 K, 2510 kPa, x1 = 0.2493	0.02913
375 K, 2740 kPa, x1 = 0.7496	0.04129
375 K, 2840 kPa, x1 = 0.4994	0.0352
375 K, 3015 kPa, x1 = 0.2493	0.02945
375 K, 3310 kPa, x1 = 0.7496	0.04145
375 K, 3480 kPa, x1 = 0.4994	0.03545
375 K, 3510 kPa, x1 = 0.2493	0.0297
375 K, 3915 kPa, x1 = 0.7496	0.04181
375 K, 4005 kPa, x1 = 0.2493	0.02993
375 K, 4100 kPa, x1 = 0.4994	0.03561
375 K, 4490 kPa, x1 = 0.7496	0.04204
375 K, 4500 kPa, x1 = 0.2493	0.0302
375 K, 4715 kPa, x1 = 0.4994	0.03598
375 K, 4975 kPa, x1 = 0.2493	0.03051
375 K, 5440 kPa, x1 = 0.2493	0.03075
375 K, 5855 kPa, x1 = 0.4994	0.03682
375 K, 6910 kPa, x1 = 0.7496	0.04355
375 K, 6930 kPa, x1 = 0.4994	0.03739
375 K, 8000 kPa, x1 = 0.4994	0.03823
375 K, 9330 kPa, x1 = 0.7496	0.04538
375 K, 11600 kPa, x1 = 0.7496	0.04722
400 K, 983 kPa, x1 = 0.2493	0.03152
400 K, 986 kPa, x1 = 0.4994	0.03807
400 K, 993 kPa, x1 = 0.7496	0.04503
400 K, 1410 kPa, x1 = 0.2493	0.0316
400 K, 1690 kPa, x1 = 0.4994	0.03812
400 K, 1700 kPa, x1 = 0.7496	0.04501
400 K, 1820 kPa, x1 = 0.2493	0.03172
400 K, 2230 kPa, x1 = 0.2493	0.03183
400 K, 2378 kPa, x1 = 0.4994	0.03826
400 K, 2393 kPa, x1 = 0.7496	0.04519
400 K, 2635 kPa, x1 = 0.2493	0.03187
400 K, 3040 kPa, x1 = 0.2493	0.03201
400 K, 3061 kPa, x1 = 0.4994	0.03844
400 K, 3115 kPa, x1 = 0.7496	0.04526
400 K, 3435 kPa, x1 = 0.2493	0.03228
400 K, 3740 kPa, x1 = 0.4994	0.03866
400 K, 3770 kPa, x1 = 0.7496	0.04535
400 K, 3850 kPa, x1 = 0.2493	0.03241
400 K, 4240 kPa, x1 = 0.2493	0.03258
400 K, 4390 kPa, x1 = 0.4994	0.03887
400 K, 4460 kPa, x1 = 0.7496	0.04578
400 K, 4615 kPa, x1 = 0.2493	0.03271
400 K, 5060 kPa, x1 = 0.4994	0.03918
400 K, 5140 kPa, x1 = 0.7496	0.04598
400 K, 5667 kPa, x1 = 0.4994	0.03961
400 K, 6180 kPa, x1 = 0.4994	0.0398
400 K, 6670 kPa, x1 = 0.7496	0.04688
400 K, 6710 kPa, x1 = 0.4994	0.04014
400 K, 8110 kPa, x1 = 0.7496	0.04756
400 K, 9545 kPa, x1 = 0.7496	0.04861
425 K, 1048 kPa, x1 = 0.2493	0.03418
425 K, 1050 kPa, x1 = 0.4994	0.04164
425 K, 1050 kPa, x1 = 0.7496	0.04889
425 K, 1530 kPa, x1 = 0.2493	0.03411
425 K, 1799 kPa, x1 = 0.4994	0.04146
425 K, 1810 kPa, x1 = 0.7496	0.04908
425 K, 1938 kPa, x1 = 0.2493	0.03436
425 K, 2390 kPa, x1 = 0.2493	0.03434
425 K, 2554 kPa, x1 = 0.4994	0.04156
425 K, 2558 kPa, x1 = 0.7496	0.04898
425 K, 2810 kPa, x1 = 0.2493	0.03448
425 K, 3260 kPa, x1 = 0.2493	0.03452
425 K, 3260 kPa, x1 = 0.4994	0.04176
425 K, 3300 kPa, x1 = 0.7496	0.04919
425 K, 3690 kPa, x1 = 0.2493	0.03472
425 K, 4000 kPa, x1 = 0.4994	0.04192
425 K, 4050 kPa, x1 = 0.7496	0.04919
425 K, 4120 kPa, x1 = 0.2493	0.0349
425 K, 4540 kPa, x1 = 0.2493	0.03506
425 K, 4730 kPa, x1 = 0.4994	0.04207
425 K, 4800 kPa, x1 = 0.7496	0.0498
425 K, 4960 kPa, x1 = 0.2493	0.0353
425 K, 5460 kPa, x1 = 0.4994	0.04245
425 K, 5520 kPa, x1 = 0.7496	0.05001
425 K, 6410 kPa, x1 = 0.4994	0.04284
425 K, 7380 kPa, x1 = 0.4994	0.04335
425 K, 7670 kPa, x1 = 0.7496	0.05089
425 K, 8310 kPa, x1 = 0.4994	0.04385
425 K, 9820 kPa, x1 = 0.7496	0.05188
425 K, 11970 kPa, x1 = 0.7496	0.05348

Reference: the NIST ThermoML archive (doi:10.1007/s10765-005-5566-6)
